Data: US20030206968A1, “Fungicidal mixtures” (priority 1999, published 2003)

Assays:
Type in all cases: in vivo
Blumeria graminis [1] = assay: Greenhouse, Blumeria graminis on wheat, 4 days residual; details: Example 30
Experimental: (§1) The trials are carried out under greenhouse (Examples 1 to 32) or field conditions (Examples 33 to 40) in residual or curative applications. The fungicides are applied in single treatments, or in a combination comprising an azolopyrimidine of formula I and a compound selected from the classes (A), (B) and (C) as defined above. The compounds are applied in form of an aqueous spray mix obtained from a concentrated formulation or the technical material.
(§2) 1. Seed is planted in 6 cm diameter plastic pots and maintained in the greenhouse.
(§3) 2. When the primary leaf is fully expanded in the case of cereals or several leaves are present in the case of dicots, formulated test compounds are sprayed with a three nozzle overhead fungicide sprayer to near run-off. Alternatively, a single nozzle overhead track sprayer is used for application of the compounds to cereals at a rate of 200 l/ha. Plants are then allowed to air-dry.
(§4) 3. Inoculation precedes treatment in the case of curative evaluations and follows treatment in case of residual evaluations. For inoculation of powdery mildew disease, plants are set up on greenhouse benches with bottom watering mats and inoculated by dusting them with conidia from infected plants. Between inoculation and treatment for curative evaluations and between treatment and inoculation for residual evaluations, plants are maintained in the greenhouse with bottom watering.
(§5) 4. Disease on the foliage as percent leaf area with disease symptoms/signs is evaluated about 7 days after inoculation. In the case of wheat, the tips and bases of the leaves are excluded from the evaluation. [formula]
(§6) 1. Technical compounds are formulated in a solvent/surfactant system consisting of 5% acetone and 0.05% Tween 20 in deionized water. Compounds are dissolved in acetone prior to addition of the water; the Tween 20 can be added through either the acetone or the water. Dilutions are made using the solvent/surfactant system. Formulated compounds are prepared using deionized water.
(§7) 2. Two kinds of controls are included: Plants treated with the solvent/surfactant solution and inoculated (Solvent Blank). Untreated plants which are inoculated (Inoculated Control).
(§8) Assessments of the diseases took place at the indicated day after the application of the compounds. Per cent infected leaf area infected was evaluated. The efficacy of the compounds/compounds mixtures to control the diseases was calculated by using the formula given above under item 4: […]
(§9) Synergy was calculated using the % disease control values of specific treatments for the two COLBY formula given hereinabove
Fungicidal efficacy of the mixture of (S)-Azolopyrimidine C in admixture with Azoxystrobin or Trifloxystrobin (4 days residual) against Blumeria graminis on wheat. The tank mixes were obtained from technical material of (S)-Azolopyrimidine C and Azoxystrobin or Trifloxystrobin.

Puccinia recondita = assay: Greenhouse, Puccinia recondita on wheat, 4 days residual; details: Example 31
Experimental: as §1, §2, §3, §4
(§10) For inoculation of non-powdery mildew diseases, an aqueous spore suspension of the pathogen is applied to the plant and the plants are kept 1-2 days in a moist infection chamber before being returned to the greenhouse where they are maintained by bottom watering.
as §5, §6, §7, §8, §9
Fungicidal efficacy of the mixture of (S)-Azolopyrimidine C in admixture with Azoxystrobin or Trifloxystrobin (4 days residual) against Puccinia recondita on wheat. The tank mixes were obtained from technical material of (S)-Azolopyrimidine C and Azoxystrobin or Trifloxystrobin.

Blumeria graminis [2] = assay: Field test, Blumeria graminis on wheat; details: 17 days after application
How it was run: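 Field trial on wheat: formulated products (SC/EC tank mixes, alone or in mixtures) sprayed as aqueous mix at 400 l/ha by good agricultural practice. Percent infected leaf area assessed 15 or 17 days after application; efficacy calculated as disease control, with synergy judged by the Colby formula.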

Erysiphe cichoracearum = assay: Greenhouse, Erysiphe cichoracearum on cucumbers, 1 day residual
Experimental: as §1, §2, §3, §4, §5, §6, §7, §8, §9
Fungicidal efficacy of the mixture of Azolopyrimidine C+triforine (1 day residual) against Erysiphe cichoracearum on cucumbers
the tank mix was obtained from a SC formulation containing 100 g of Azolopyrimidine C per liter and an DC formulation containing and 190 g of triforine per liter.
Fungicidal efficacy of the mixture of Azolopyrimidine C+cyprodinil (1 day residual) against Erysiphe cichoracearum on cucumbers The tank mix was obtained from a SC formulation containing 100 g of Azolopyrimidine C per liter and a WG formulation containing and 750 g of cyprodinil per kg.

Pyrenophora teres = assay: Greenhouse, Pyrenophora teres on barley, 1 day residual; details: Example 10
Experimental: as §1, §2, §3, §4, §10, §5, §6, §7, §8, §9
Fungicidal efficacy of the mixture of Azolopyrimidine C+metconazole (1 day residual) against Pyrenophora teres on barley The tank mix was obtained from a SC formulation containing 100 g Azolopyrimidine C per liter and an EC containing 100 g metconazole per liter.

Rhynchosporium secalis = assay: Greenhouse, Rhynchosporium secalis on barley, 1 day residual; details: Example 8; dose rate 100 ppm
Experimental: as §1, §2
2. When the primary leaf is fully expanded in the case of cereals or several leaves are present in the case of dicots, formulated test compounds are sprayed with a three nozzle overhead fungicide sprayer to near run-off. […]
4. Disease on the foliage as percent leaf area with disease symptoms/signs is evaluated about 7 days after inoculation. […]
as §8
Synergy was calculated using the % disease control values of specific treatments for the two COLBY formula given hereinabove […]

## 5-chloro-6-(2,4,6-trifluorophenyl)-7-(1,1,1-trifluoroprop-2-ylamino)-[1,2,4]triazolo[1,5-a]pyrimidine [(S)-Azolopyrimidine C]
Blumeria graminis [1]; dose rate 3.1 ppm
  Observed Efficacy: 0%
Blumeria graminis [1]; dose rate 6.3 ppm
  Observed Efficacy: 0%
Blumeria graminis [1]; dose rate 12.5 ppm
  Observed Efficacy: 3%
Blumeria graminis [1]; dose rate 25 ppm
  Observed Efficacy: 11%
Blumeria graminis [1]; dose rate 50 ppm
  Observed Efficacy: 34%
Puccinia recondita; dose rate 3.1 ppm
  Observed Efficacy: 0%
Puccinia recondita; dose rate 6.3 ppm
  Observed Efficacy: 9%
Puccinia recondita; dose rate 12.5 ppm
  Observed Efficacy: 16%
Puccinia recondita; dose rate 25 ppm
  Observed Efficacy: 27%
Puccinia recondita; dose rate 50 ppm
  Observed Efficacy: 50%
Blumeria graminis [2]; Table XXXVI, (S)-Azolopyrimidine C 25 g/ha alone
  Observed Efficacy: 63
Blumeria graminis [2]; Table XXXVI, (S)-Azolopyrimidine C 50 g/ha alone
  Observed Efficacy: 78
Blumeria graminis [2]; Table XXXVI, (S)-Azolopyrimidine C 75 g/ha alone
  Observed Efficacy: 74
Blumeria graminis [2]; Table XXXVII, (S)-Azolopyrimidine C 25 g/ha alone
  Observed Efficacy: 63
Blumeria graminis [2]; Table XXXVII, (S)-Azolopyrimidine C 50 g/ha alone
  Observed Efficacy: 78
Blumeria graminis [2]; Table XXXVII, (S)-Azolopyrimidine C 75 g/ha alone
  Observed Efficacy: 74
Blumeria graminis [2]; Table XXXVII, (S)-Azolopyrimidine C 100 g/ha alone
  Observed Efficacy: 96

## CC(Nc1c(-c2c(F)cc(F)cc2F)c(Cl)nc2ncnn12)C(F)(F)F (stereo not drawn) [Azolopyrimidine C, 5-chloro-6-(2,4,6-trifluorophenyl)-7-(1,1,1-trifluoroprop-2-ylamino)-[1,2,4]triazolo[1,5-a]pyrimidine]
Erysiphe cichoracearum; Example 23, dose rate 1 ppm
  Observed Efficacy: 0%
Erysiphe cichoracearum; Example 23, dose rate 4 ppm
  Observed Efficacy: 7%
Erysiphe cichoracearum; Example 24, dose rate 1 ppm
  Observed Efficacy: 0%
Erysiphe cichoracearum; Example 24, dose rate 4 ppm
  Observed Efficacy: 7%
Pyrenophora teres; dose rate 10 ppm
  Observed Efficacy: 0%
Pyrenophora teres; dose rate 25 ppm
  Observed Efficacy: 0%
Pyrenophora teres; dose rate 40 ppm
  Observed Efficacy: 0%
Pyrenophora teres; dose rate 50 ppm
  Observed Efficacy: 0%
Pyrenophora teres; dose rate 125 ppm
  Observed Efficacy: 0%
Rhynchosporium secalis
  Observed Efficacy: 15%
